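How tested: cells in 96-well plates exposed to compound for 48 hours at five concentrations. TGI: total growth inhibition.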
Legend:
Assay in all cases: NCI tumour cell line growth inhibition, 48 h
A549 NSCLC = test system: A549 NSCLC
UACC-62 melanoma = test system: UACC-62 melanoma
UO-31 renal = test system: UO-31 renal
DMS 114 small cell lung = test system: DMS 114 small cell lung
NCI-H522 lung = test system: NCI-H522 lung
RXF 393 renal = test system: RXF 393 renal
NCI-H226 lung = test system: NCI-H226 lung
NCI-H460 lung = test system: NCI-H460 lung
SNB-19 CNS = test system: SNB-19 CNS
SNB-75 CNS = test system: SNB-75 CNS
OVCAR-8 ovarian = test system: OVCAR-8 ovarian
EKVX NSCLC = test system: EKVX NSCLC
KM20L2 colon = test system: KM20L2 colon
K-562 leukemia = test system: K-562 leukemia
M14 melanoma = test system: M14 melanoma
IGROV1 ovarian = test system: IGROV1 ovarian
NCI-H23 lung = test system: NCI-H23 lung
SF-268 CNS = test system: SF-268 CNS
HT29 colon = test system: HT29 colon
SK-OV-3 ovarian = test system: SK-OV-3 ovarian
SK-MEL-5 melanoma = test system: SK-MEL-5 melanoma
HL-60(TB) leukemia = test system: HL-60(TB) leukemia
OVCAR-4 ovarian = test system: OVCAR-4 ovarian
HCT-116 colon = test system: HCT-116 colon
LXFL 529 NSCLC = test system: LXFL 529 NSCLC
HOP-18 NSCLC = test system: HOP-18 NSCLC
M19-MEL melanoma = test system: M19-MEL melanoma
786-0 renal = test system: 786-0 renal
OVCAR-5 ovarian = test system: OVCAR-5 ovarian
DMS 273 small cell lung = test system: DMS 273 small cell lung
MOLT-4 leukemia = test system: MOLT-4 leukemia
KM12 colon = test system: KM12 colon
UACC-257 melanoma = test system: UACC-257 melanoma
CAKI-1 renal = test system: CAKI-1 renal
SN12C renal = test system: SN12C renal
SF-295 CNS = test system: SF-295 CNS
HOP-92 NSCLC = test system: HOP-92 NSCLC
ACHN renal = test system: ACHN renal
TK-10 renal = test system: TK-10 renal
SF-539 CNS = test system: SF-539 CNS
RPMI-8226 leukemia = test system: RPMI-8226 leukemia
A498 renal = test system: A498 renal
DLD-1 colon = test system: DLD-1 colon
SNB-78 CNS = test system: SNB-78 CNS
HOP-62 NSCLC = test system: HOP-62 NSCLC
COLO 205 colon = test system: COLO 205 colon
MALME-3M melanoma = test system: MALME-3M melanoma
HCT-15 colon = test system: HCT-15 colon
U251 CNS = test system: U251 CNS
SR leukemia = test system: SR leukemia
SK-MEL-2 melanoma = test system: SK-MEL-2 melanoma
SK-MEL-28 melanoma = test system: SK-MEL-28 melanoma
XF 498 CNS = test system: XF 498 CNS
SW-620 colon = test system: SW-620 colon
LOX IMVI melanoma = test system: LOX IMVI melanoma
OVCAR-3 ovarian = test system: OVCAR-3 ovarian
CCRF-CEM leukemia = test system: CCRF-CEM leukemia

Measured: TGI

C=CCNC(=S)N1CC(C)C(=O)Nc2cc(Cl)ccc21 (stereo not given)
not listed: XF 498 CNS | SW-620 colon | LOX IMVI melanoma | OVCAR-3 ovarian | CCRF-CEM leukemia
> 100 µM: all other assays above

CC(C)C12Cc3c(ccc4ccccc34)OC1(C)Oc1ccc3ccccc3c1C2 (stereo not given)
not listed: HL-60(TB) leukemia | HOP-18 NSCLC | M19-MEL melanoma | UACC-257 melanoma | RPMI-8226 leukemia | A498 renal | HOP-62 NSCLC | HCT-15 colon | SK-MEL-28 melanoma
> 100 µM: all other assays above

Source: PubChem BioAssay (NCI)
